Measurements reported in patent publication US7943602B2 (Pantarhei Bioscience B.V., priority 2002, dated 2011).

Tests used:
[1] = test system: immature male Wistar rats; experiment: In vivo androgenicity, seminal vesicle wet weight after oral dosing for 5 days; design: species or system rat; conditions: for Increase seminal vesicle wet weight: once daily for 5 days, relative to vehicle treated rats; for Relative potency: DHT as reference (100%)
Description: Groups of 5 immature male Wistar rats, weighing 50±2 grams, received either vehicle treatment or were administered 30 or 10 mg/kg/day test substance by oral gavage in a dosing volume of 10 ml per kg for 5 consecutive days. During the experiment, animals were housed in cages of 45×23×15 cm and maintained in a controlled temperature of 22-24° C. and humidity (60-80%) environment with 12 hours light/dark cycles. Food (lab diet, rodent diet, PMI nutrition international) and water intake was ad libitum.
The animals were sacrificed 24 hours after receiving the final dose and the wet weight of the seminal vesicle of each animal was recorded and average wet weight per group was calculated. Increase in average seminal vesicle wet weight relative to the average seminal vesicle wet weight of vehicle treated rats was considered indicative for in vivo androgenicity.

[2] = target: T1, human sex Hormone Binding Globulin (SHBG) (Homo sapiens, UniProt P04278); experiment: Competitive steroid-binding assay, displacement of [3H]DHT from human SHBG; conditions: [3H]DHT as labeled ligand, compared to DHT, T or DHEA (FIG. 1)
T1 sequence (P04278 30-402): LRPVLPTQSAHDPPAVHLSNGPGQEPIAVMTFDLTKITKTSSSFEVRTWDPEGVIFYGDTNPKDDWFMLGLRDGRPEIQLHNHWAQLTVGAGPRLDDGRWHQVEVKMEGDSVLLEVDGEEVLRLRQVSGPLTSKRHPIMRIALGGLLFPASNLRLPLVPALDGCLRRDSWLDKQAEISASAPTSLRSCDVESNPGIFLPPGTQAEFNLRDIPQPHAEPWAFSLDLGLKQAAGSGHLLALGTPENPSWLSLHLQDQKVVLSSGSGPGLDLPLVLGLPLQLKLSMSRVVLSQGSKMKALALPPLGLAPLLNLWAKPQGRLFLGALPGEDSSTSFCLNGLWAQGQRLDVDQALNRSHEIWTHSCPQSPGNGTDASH
Description: Human SHBG was treated for 30 min at room temperature with a dextran-coated charcoal (DCC) suspension in phosphate buffered saline (PBS) to remove any steroid ligand. After centrifugation (2,000×g for 10 min) to sediment the DCC, the supernatant containing the human SHBG was diluted in PBS to a concentration of 1 nM based on its steroid binding capacity.
Duplicate aliquots (100 μl) of this human SHBG solution were then incubated with an equal volume of [^3H]DHT at 10 nM, together with 100 μl of PBS alone or the same amount of PBS containing increasing concentrations of unlabeled steroid ligands as competitors in polystyrene test tubes. After incubation for 1 h at room temperature the reaction mixtures were placed in an ice bath for a further 15 min. […] The unbound ligands adsorbed to DCC were then removed by centrifugation (2,000×g for 15 min at 4° C.), and the amounts of [^3H]labeled DHT bound to SHBG were counted in 2 ml ACS scintillation cocktail using in liquid scintillation spectrophotometer. The average amounts of [^3H] labeled DHT bound to SHBG at each concentration of competitor (B) were expressed as a percentage of the average amounts of [^3H]labeled DHT bound to SHBG in the absence of competitor (T), and were plotted against the concentration of competitor in each assay tube.

[3] = target: T2, Recombinant rat AR (Rattus norvegicus, UniProt P15207); experiment: Competitive steroid binding assay to the androgen receptor with [3H]mibolerone; conditions: for AR-binding Relative affinity: Ki value of DHT set at 100%; for Affinity to AR as compared to DHT and testosterone: orders of magnitude
T2 construct: made in house; host or cells: E. coli
T2 sequence (P15207 1-902): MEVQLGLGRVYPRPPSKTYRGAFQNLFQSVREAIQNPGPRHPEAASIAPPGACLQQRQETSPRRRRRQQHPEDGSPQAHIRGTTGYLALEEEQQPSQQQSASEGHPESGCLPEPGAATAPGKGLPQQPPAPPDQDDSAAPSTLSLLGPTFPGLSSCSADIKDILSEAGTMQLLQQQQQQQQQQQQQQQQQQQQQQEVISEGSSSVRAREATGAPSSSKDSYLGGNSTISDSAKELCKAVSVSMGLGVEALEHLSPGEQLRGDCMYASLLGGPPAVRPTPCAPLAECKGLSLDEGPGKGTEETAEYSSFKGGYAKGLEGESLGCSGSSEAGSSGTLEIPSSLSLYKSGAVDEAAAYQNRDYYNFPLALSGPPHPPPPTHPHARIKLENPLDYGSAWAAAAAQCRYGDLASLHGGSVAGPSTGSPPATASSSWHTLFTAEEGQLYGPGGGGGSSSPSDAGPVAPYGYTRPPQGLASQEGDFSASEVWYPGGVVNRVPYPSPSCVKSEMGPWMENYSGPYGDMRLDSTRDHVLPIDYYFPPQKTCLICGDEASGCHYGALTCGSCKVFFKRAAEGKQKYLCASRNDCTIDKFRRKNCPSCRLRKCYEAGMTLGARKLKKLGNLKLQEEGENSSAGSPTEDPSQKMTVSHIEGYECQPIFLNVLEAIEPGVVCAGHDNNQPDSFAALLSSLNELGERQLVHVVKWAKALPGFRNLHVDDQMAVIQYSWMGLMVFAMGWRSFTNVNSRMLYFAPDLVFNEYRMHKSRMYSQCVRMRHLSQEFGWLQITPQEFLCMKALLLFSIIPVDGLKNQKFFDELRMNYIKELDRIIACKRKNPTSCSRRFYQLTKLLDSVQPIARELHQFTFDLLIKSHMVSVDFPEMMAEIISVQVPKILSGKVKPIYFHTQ
Description: Recombinant rat AR was expressed and purified from E. Coli. […] After incubation for 4 h at 4° C., the unbound ligands were removed and the amounts of [^3H]mibolerone bound to the AR was measured. The average amounts of [^3H]mibolerone bound to AR at each concentration of competitor were used to make inhibition curves. IC50 values were subsequently determined by a non-linear, least squares regression analysis.

| SMILES | Increase seminal vesicle wet weight ([1]; oral dose 10 mg/kg/day) [%] | Increase seminal vesicle wet weight ([1]; oral dose 30 mg/kg/day) [%] | Relative potency ([1]; oral dose 10 mg/kg/day) [%] | Relative potency ([1]; oral dose 30 mg/kg/day) [%] | Binding to human SHBG [2] | Ki [3] [nM] | AR-binding Relative affinity [3] [%] | Affinity to AR as compared to DHT and testosterone [3] |
| --- | --- | --- | --- | --- | --- | --- | --- | --- |
| C[C@]12CCC(=O)C[C@@H]1CC[C@@H]1[C@@H]2CC[C@]2(C)[C@@H](O)CC[C@@H]12 [5α-dihydroxytestosterone, DHT, reference compound] | 5 | 27 |  |  |  |  |  |  |
| C[C@]12CC[C@H]3[C@@H](CCC4=CC(=O)CC[C@@]43C)[C@@H]1[C@@H](O)C[C@@H]2O [15α-hydroxytestosterone, 15α,17β-dihydroxy-4-androsten-3-one] | 28 | 40 | 560 | 148 | do not bind human SHBG | 1820 | 0.05 | 2 to 3 orders of magnitude less affinity |
| C[C@]12CC[C@H]3[C@@H](CCC4=CC(=O)CC[C@@]43C)[C@@H]1[C@H](O)C[C@@H]2O [15β-hydroxytestosterone, 15β,17β-dihydroxy-4-androsten-3-one] | 20 | 35 | 400 | 130 | do not bind human SHBG | 557 | 0.18 | 2 to 3 orders of magnitude less affinity |
| C[C@]12CC[C@H]3[C@@H](CCC4=CC(=O)CC[C@@]43C)[C@@H]1C[C@H](O)[C@@H]2O [16β-hydroxytestosterone, 16β,17β-dihydroxy-4-androsten-3-one] |  |  |  |  |  | 814 | 0.12 | 2 to 3 orders of magnitude less affinity |
| C[C@]12CC[C@H]3[C@@H](CCC4=CC(=O)CC[C@@]43C)[C@@H]1CC[C@@H]2O [Testosterone, 17β-hydroxy-4-androsten-3-one, reference compound] | 41 | 47 |  |  |  |  |  |  |
